For the experiment, the system named is U 87 MG. In words: Cytotoxicity, propidium iodide assay, U 87 MG. It counts as cell-based. The following applies: Homo sapiens, Glioblastoma, 48 hours treatment, read-out: IC50, C7b (U 87 MG). How it is done: The assay was designed as in the reference, Anticancer Drugs, 2002, 13, 1-8, the disclosure of which is incorporated by reference for the teaching of the assay.
Cells from cell lines as mentioned in the table given below were seeded at a density of 3000 cells/well in a white opaque 96-well plate. Following incubation at 37° C./5% CO2 for a period of 18-24 hours, the cells were treated with various concentrations (stock solution was prepared in DMSO and subsequent dilutions were made in media as per ATCC guidelines) of the compounds of Example 1-40 was for a period of 48 hours. At the end of treatment, the spent culture medium was discarded, the cells were washed with 1×PBS and 200 μl of 7 μg/ml propidium iodide was added to each well. The plates were frozen at −70° C. for at least 24 hours. For analysis, the plates were brought to RT, allowed to thaw and were read in PoleStar fluorimeter with the fluorescence setting. The percentage of viable cells in the non-treated set of wells was considered to be 100 and the percentage viability following treatment was calculated accordingly. IC50 values were calculated from graphs plotted using these percentages. Table 4 depicts the IC50 values of compounds of Example 1-40 in individual cell lines.
The abbreviations for the Cell Lines as used in Table 4 are: […]

As usually defined, the IC50 is the concentration at which inhibition is half-maximal. `Cc1cccc(S(=O)(=O)n2c(=O)n(-c3ccc(C(C)(C)C#N)cc3)c3c4cc(Br)ccc4ncc32)c1` [Example 3, 2-(4-(8-Bromo-2-oxo-3-(m-tolylsulfonyl)-2,3-dihydro-1H-imidazo[4,5-c]quinolin-1-yl)phenyl)-2-methylpropanenitrile]: the IC50 was 1000 to 3000 nM.
With `CC(C)(C#N)c1ccc(-n2c(=O)n(C(=O)c3ccccc3)c3cnc4ccc(Cl)cc4c32)cc1` [Example 37, 2-(4-(3-Benzoyl-8-chloro-2-oxo-2,3-dihydro-1H-imidazo[4,5-c]quinolin-1-yl)phenyl)-2-methylpropanenitrile], the IC50 was over 3000 nM.

The values are drawn from patent US8637670B2, “Imidazo [4,5-C]quinoline derivatives and their use in the treatment of tumors and/or inflammation” (Piramal Enterprises Limited, priority 2009, dated 2014).
